# Results from paper PMC7230162, “Syntheses and Glycosidase Inhibitory Activities, and in Silico Docking Studies of Pericosine E Analogs Methoxy-Substituted at C6” (Marine Drugs, 2020).
# Where two headings read alike, the source gives them in different places.
# Tests used:
# [1] = target: β-glucosidase (Sweet Almond); assay: β-glucosidase inhibitory activity assay (p-nitrophenyl-β-D-glucopyranoside); format: biochemical
# Description: (§1) Infrared (IR) spectra were recorded on a 1720X Fourier transformation-infrared (FT-IR) spectrometer (Perkin Elmer, MA, USA) or an IRAffinity-1S FT-IR spectrometer (Shimadzu, Kyoto, Japan). High-resolution mass spectra (HRMS) were recorded on a JMS-700 (2) mass spectrometer (JEOL, Tokyo, Japan). Nuclear magnetic resonance (NMR) spectra were recorded at 27 °C on 400-MR-DD2 (Agilent Technologies, CA, USA) and 600-DD2 (Agilent Technologies, CA, USA) instruments in CDCl3 or acetone-d6 using tetramethylsilane as an internal standard. Specific rotations were measured with a JASCO P-2300 spectrometer (JASCO Co., Tokyo, Japan). Liquid column chromatography was conducted on silica gel (Fuji Silysia FL-60D). Analytical thin layer chromatography (TLC) was performed on Silicagel 70 F254 plates (Wako Pure Chemical Industries, Tokyo, Japan), and compounds were detected by dipping the plates into an ethanolic solution of phosphomolybdic acid followed by heating. Microwave (MW)-aided reactions were carried out in a Biotage Initiator® reactor (PartnerTech Atvidaberg AB for Biotage Sweden AB, Uppsala, Sweden). NaBH4 and trifluoroacetic acid (TFA) were purchased from Wako Pure Chemical Industries (Wako Pure Chemical Industries, Tokyo, Japan). BF3·Et2O was purchased from Sigma-Aldrich Co., LLC (St. Lewis, MO, USA). DMP was purchased from TCI (Tokyo Chemical Industry Co., Ltd., Tokyo, Japan). […] Deoxygalactonojirimycin was purchased from Funakoshi Co., Ltd., Tokyo, Japan).
# (§2) After 20 min incubation at 37 °C, the reaction was quenched by addition of Na2CO3 solution (0.5 M, 100 μL). The amount of liberated p-nitrophenol was measured colorimetrically at 400 nm (optical density at 400 nm: ODtest).
# Assays of β-glucosidase, α-mannosidase, β-mannosidase, and β-galactosidase inhibitory activities were carried out as above using p-nitrophenyl-β-D-glucopyranoside, p-nitrophenyl-α-D-mannopyranoside, p-nitrophenyl-β-D-mannopyranoside, and p-nitrophenyl-β-D-galactopyranoside as substrates.
# α-glucosidase (Yeast) [2] = target: T1, α-glucosidase (Yeast) (Saccharomyces cerevisiae, UniProt P53341); assay: α-glucosidase inhibitory activity assay (p-nitrophenyl-α-D-glucopyranoside); format: biochemical
# Excerpt: (§3) The synthesized compounds were subjected to glycosidase inhibitory activity assays (Table 1). Herein, α-galactosidase (from green coffee bean) and β-galactosidase (from bovine lever) were used in addition to the three previously employed glycosidases (α-glucosidase, β-glucosidase, and α-mannosidase). To facilitate comparison across studies, we used the same batches of the three abovementioned glycosidases as those employed before. Some compounds were not tested against all five enzymes because of the limited amount of materials.
# as §1, §2
# [3] = target: T2, α-mannosidase (Jack Bean) (Canavalia ensiformis, UniProt C0HJB3); settings: read-out: IC50 (M) α-mannosidase (Jack Bean); values of a previous work; cited from earlier work
# T2 construct: purchased Sigma-Aldrich Co., LLC lot 055K7047 (catalogue number not given)
# [4] = target: β-glucosidase (Sweet Almond); set-up: method as in PMID 28124983; settings: values of a previous work; cited from earlier work
# [5] = target: T3, β-galactosidase (Bovine Liver) (Bos taurus, UniProt Q58D55); assay: β-galactosidase inhibitory activity assay (p-nitrophenyl-β-D-galactopyranoside); format: biochemical
# T3 sequence (Q58D55 28-653): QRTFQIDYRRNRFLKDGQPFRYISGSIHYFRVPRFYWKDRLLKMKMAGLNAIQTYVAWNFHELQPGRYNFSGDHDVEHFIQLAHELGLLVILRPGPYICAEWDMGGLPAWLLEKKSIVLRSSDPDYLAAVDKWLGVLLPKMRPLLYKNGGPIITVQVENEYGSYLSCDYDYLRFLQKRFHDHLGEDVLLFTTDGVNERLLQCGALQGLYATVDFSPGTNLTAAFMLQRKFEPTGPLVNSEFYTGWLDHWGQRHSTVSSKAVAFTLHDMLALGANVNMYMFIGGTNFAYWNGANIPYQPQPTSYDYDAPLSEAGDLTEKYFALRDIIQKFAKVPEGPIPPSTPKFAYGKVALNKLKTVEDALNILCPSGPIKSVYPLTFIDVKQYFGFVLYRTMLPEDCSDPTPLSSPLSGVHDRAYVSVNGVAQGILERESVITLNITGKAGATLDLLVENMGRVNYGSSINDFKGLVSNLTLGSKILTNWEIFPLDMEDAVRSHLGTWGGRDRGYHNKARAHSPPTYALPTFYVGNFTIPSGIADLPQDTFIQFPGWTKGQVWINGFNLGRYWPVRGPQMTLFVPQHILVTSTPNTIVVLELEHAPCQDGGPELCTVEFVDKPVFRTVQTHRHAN
# Excerpt: as §3
# Infrared (IR) spectra were recorded on a 1720X Fourier transformation-infrared (FT-IR) spectrometer (Perkin Elmer, MA, USA) or an IRAffinity-1S FT-IR spectrometer (Shimadzu, Kyoto, Japan). High-resolution mass spectra (HRMS) were recorded on a JMS-700 (2) mass spectrometer (JEOL, Tokyo, Japan). Nuclear magnetic resonance (NMR) spectra were recorded at 27 °C on 400-MR-DD2 (Agilent Technologies, CA, USA) and 600-DD2 (Agilent Technologies, CA, USA) instruments in CDCl3 or acetone-d6 using tetramethylsilane as an internal standard. Specific rotations were measured with a JASCO P-2300 spectrometer (JASCO Co., Tokyo, Japan). […]
# After 20 min incubation at 37 °C, the reaction was quenched by addition of Na2CO3 solution (0.5 M, 100 μL). The amount of liberated p-nitrophenol was measured colorimetrically at 400 nm (optical density at 400 nm: ODtest). […]
# α-glucosidase (Yeast) [6] = target: T1, α-glucosidase (Yeast); settings: cited from earlier work; for IC50: values of a previous work
# T2 sequence (C0HJB3 1-562): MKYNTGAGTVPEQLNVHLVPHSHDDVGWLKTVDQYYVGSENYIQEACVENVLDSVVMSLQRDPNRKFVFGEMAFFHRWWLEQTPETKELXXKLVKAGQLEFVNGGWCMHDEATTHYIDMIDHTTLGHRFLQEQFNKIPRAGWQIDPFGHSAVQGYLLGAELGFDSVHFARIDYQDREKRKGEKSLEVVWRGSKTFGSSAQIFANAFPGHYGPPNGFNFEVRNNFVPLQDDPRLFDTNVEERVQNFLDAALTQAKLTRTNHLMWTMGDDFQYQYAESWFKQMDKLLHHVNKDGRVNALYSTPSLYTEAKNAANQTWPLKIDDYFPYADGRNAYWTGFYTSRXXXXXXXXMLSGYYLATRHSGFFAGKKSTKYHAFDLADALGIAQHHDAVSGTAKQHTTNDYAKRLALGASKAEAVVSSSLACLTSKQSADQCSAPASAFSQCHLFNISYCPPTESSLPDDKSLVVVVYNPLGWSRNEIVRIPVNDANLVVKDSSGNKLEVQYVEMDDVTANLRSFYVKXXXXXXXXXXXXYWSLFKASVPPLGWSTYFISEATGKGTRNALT
# T2 sequence (C0HJB3 563-981): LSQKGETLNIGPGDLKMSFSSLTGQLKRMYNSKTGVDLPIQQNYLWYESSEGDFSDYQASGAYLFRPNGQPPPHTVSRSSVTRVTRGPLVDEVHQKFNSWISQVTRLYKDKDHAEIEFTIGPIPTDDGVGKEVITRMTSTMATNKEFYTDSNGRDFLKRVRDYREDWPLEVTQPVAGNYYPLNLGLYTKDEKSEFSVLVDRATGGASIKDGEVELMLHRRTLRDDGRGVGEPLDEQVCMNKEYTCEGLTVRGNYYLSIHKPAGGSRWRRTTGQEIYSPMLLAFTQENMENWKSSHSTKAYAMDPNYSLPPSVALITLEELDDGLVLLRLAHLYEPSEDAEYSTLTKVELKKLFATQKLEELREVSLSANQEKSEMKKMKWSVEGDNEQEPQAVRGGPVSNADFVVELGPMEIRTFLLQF
# T1 sequence (P53341 whole entry): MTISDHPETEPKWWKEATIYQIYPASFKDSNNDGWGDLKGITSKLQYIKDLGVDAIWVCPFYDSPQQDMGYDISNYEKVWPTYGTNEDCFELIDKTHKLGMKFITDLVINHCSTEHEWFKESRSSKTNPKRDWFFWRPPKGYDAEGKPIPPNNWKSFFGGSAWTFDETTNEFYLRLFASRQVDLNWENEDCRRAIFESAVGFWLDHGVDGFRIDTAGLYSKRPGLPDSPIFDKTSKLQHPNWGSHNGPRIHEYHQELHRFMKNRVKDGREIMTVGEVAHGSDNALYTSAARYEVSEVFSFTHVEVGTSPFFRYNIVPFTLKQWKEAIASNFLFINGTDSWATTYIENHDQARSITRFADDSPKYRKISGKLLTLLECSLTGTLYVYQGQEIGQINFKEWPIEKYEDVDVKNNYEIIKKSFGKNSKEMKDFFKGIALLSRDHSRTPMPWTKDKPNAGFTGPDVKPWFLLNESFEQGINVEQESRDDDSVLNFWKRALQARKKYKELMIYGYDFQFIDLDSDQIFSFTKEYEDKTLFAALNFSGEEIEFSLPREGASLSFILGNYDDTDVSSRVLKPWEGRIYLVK
compound,measurement,setting,value
"COC(=O)C1=CC(O)C(O)C(O)C1OC1C(OC)C(C(=O)OC)=CC(O)C1O (single isomer, unassigned; (+)) [(+)-6]",IC50,[1],[…]
same,α-glucosidase inhibitory activity (in words),α-glucosidase (Yeast) [2],moderately inhibited
"COC(=O)C1=CC(O)C(O)C(OC2C(C(=O)OC)=CC(O)C(O)C2O)C1Cl (single isomer, unassigned; (-)) [(−)-5]",IC50,[3],> 0.0078 M
same,IC50,[4],> 7.8 mM
"COC(=O)C1=CC(O)C(O)C(O)C1OC1C(OC)C(C(=O)OC)=CC(O)C1O (single isomer, unassigned; (-)) [(−)-7]",IC50,[1],[…]
same,α-glucosidase inhibitory activity (in words),α-glucosidase (Yeast) [2],moderately inhibited
"COC(=O)C1=CC(O)C(O)C(O)C1OC1C(OC)C(C(=O)OC)=CC(O)C1O (single isomer, unassigned; (-)) [(−)-8]",IC50,[1],[…]
same,α-glucosidase inhibitory activity (in words),α-glucosidase (Yeast) [2],moderately inhibited
"COC(=O)C1=CC(O)C(O)C(O)C1OC1C(OC)C(C(=O)OC)=CC(O)C1O (single isomer, unassigned; (-)) [(−)-24]",β-galactosidase inhibitory activity (in words),[5],showed β-galactosidase inhibitory activities
same,α-glucosidase inhibitory activity (in words),α-glucosidase (Yeast) [2],moderately inhibited
"COC(=O)C1=C[C@H](O)[C@H](O)[C@H](O[C@H]2C(C(=O)OC)=C[C@@H](O)[C@@H](O)[C@H]2O)[C@H]1Cl [(+)-4, (+)-pericosine E]",α-glucosidase inhibitory activity (in words),α-glucosidase (Yeast) [6],potent activity
same,IC50,α-glucosidase (Yeast) [6],0.031 mM
same,IC50,[3],> 0.0078 M
same,IC50,[4],> 7.8 mM
"COC(=O)C1=C[C@@H](O)[C@@H](O)[C@@H](O[C@@H]2C(C(=O)OC)=C[C@H](O)[C@H](O)[C@@H]2O)[C@@H]1Cl [(−)-4, (−)-pericosine E]",IC50,α-glucosidase (Yeast) [6],1.5 mM
same,IC50,[3],> 0.0078 M
same,IC50,[4],> 7.8 mM
"OC[C@H]1NC[C@H](O)[C@@H](O)[C@H]1O [Deoxygalactonojirimycin, reference compound]",IC50,[5],0.14 mM
